Laboratory results from patent publication US9090589B2, “Specific nNOS inhibitors for the therapy and prevention of human melanoma” (priority 2011, dated 2015).
“Also recorded” adds a separate entry of the source. Where two headings read alike, the source gives them in different places.

Experiments:
melanoma A375 cells = experiment: L-arginine-induced intracellular NO, Griess reagent; assay type: cell-based, human
Protocol: (§1) Measurements of intracellular Nitric Oxide levels and NOS activities: NO was measured as nitrite by interaction with Griess reagent (Enzo Life Sciences, Lausen, Switzerland). […] The NOS activity was analyzed by Ultrasensitive Colorimetric Assay according to manufacturer's protocol (Oxford Biomedical Research, Inc., Oxford, Mich.).

[1] = tested on: metastatic melanoma cells; experiment: Matrigel invasion assay; assay type: cell-based, human
Protocol: Invasion Assay: The invasiveness of melanoma cells was assessed on the basis of invasion of cells through Matrigel-coated membrane (BD Biosciences). Briefly, melanoma cells were collected and reconstituted in serum-free medium. Prepared cells were added to the upper Matrigel-coated insert. After 20 hr incubation, cells were fixed and stained with hematoxylin. Membranes were visualized microscopically and the invading cells on each of triplicate membranes were counted and averaged for 20 random fields.

[2] = tested on: metastatic melanoma A375 cells in skin equivalents; experiment: 3-dimensional skin reconstructs, melanoma growth; assay type: cell-based, human; conditions: 2 weeks
Protocol: 3-Dimensional Skin Reconstructs: A 3-dimensional skin reconstruct was achieved using a literature method. […] Once the epidermus is adhered to the dermal layer, skin equivalents are then lifted to the air liquid interface to allow keratinocytes differentiation. […] By the end of experiments, the skin equivalents were fixed and stained with H&E for pathological evaluation. S-100 staining as a melanocyte biomarker was performed to visualize and confirm the lesion of melanoma.

[3] = tested on: human primary melanocytes; experiment: MTT proliferation of primary melanocytes; assay type: cell-based; conditions: 12-day period, DETA/NO exposure
Description: (§2) Proliferation analysis: MTT Colorimetric Assay was utilized for cell proliferation analysis according to manufacturer's protocol (Vybrant®, Molecular Probes, Inc. Eugene, Oreg.).

human melanoma cells = experiment: MTT proliferation of melanoma cells under DETA/NO stress; assay type: cell-based
Description: as §2

[4] = tested on: nNOS expression in normal melanocytes; experiment: nNOS expression in normal melanocytes; assay type: cell-based, human; conditions: DETA/NO
Description: Cell Protein Extraction and Western Blot Analysis: Melanoma cells were collected and lysed as described previously. […] Measurement of signal intensity on membranes was done using an imaging densitometer with Multi-Analyst software (Bio-Rad). All data were expressed as fold change of the control based on the calculation of density values of the specific protein bands standardized by α-Tubulin/actin.

eNOS [5] = biological target: T1, eNOS (Bos taurus (Bovine), UniProt P29473); conditions: read-out: Ki eNOS; recombinant isozyme
iNOS [6] = biological target: T2, iNOS (Mus musculus (Mouse), UniProt P29477); conditions: read-out: Ki iNOS; recombinant isozyme
nNOS [7] = biological target: nNOS (Rattus norvegicus (Rat), UniProt P29476); experiment: biochemical; conditions: recombinant isozyme
nNOS [8] = experiment: biochemical; conditions: for Selectivity nNOS/eNOS: Ki(eNOS)/Ki(nNOS); for Selectivity nNOS/iNOS: Ki(iNOS)/Ki(nNOS)
Lu1205 cells = experiment: Total NOS activity, Ultrasensitive Colorimetric Assay; assay type: cell-based, human
Protocol: as §1

eNOS [9] = biological target: T1, eNOS; experiment: biochemical
wm3211 = experiment: Cytotoxicity in melanoma cell line; assay type: cell-based; conditions: Homo sapiens
Description: as §2

iNOS [10] = biological target: T2, iNOS; experiment: biochemical
Sk-Mel28 = experiment: Cytotoxicity in melanoma cell line; assay type: cell-based; conditions: Homo sapiens, SK-MEL-28
Description: as §2

iNOS [11] = biological target: T3, iNOS (Homo sapiens (Human), UniProt P35228); assay type: biochemical
iNOS [12] = biological target: T3, iNOS; conditions: cited from earlier work
nNOS [13] = biological target: nNOS (Homo sapiens (Human), UniProt P29475); conditions: cited from earlier work
[14] = tested on: metastatic melanoma A375 cells; experiment: Adhesion of A375 cells to fibroblast monolayer; assay type: cell-based, human; conditions: 2 μM, 1 hour
Protocol: Non-adhesive cells were washed away by PBS and MTT reagent was utilized to determine the relative amount of cells that adhered to FB cells, which is calculated as: relative adhesive cell OD value=(sample OD value (adhesive melanoma cells+FB)−negative control OD value (FB only)). The mean changes of OD values with treatments (control is set as 0) represented the relative effects of compounds on melanoma adhesion.

[15] = tested on: nNOS expression in melanoma cells; experiment: nNOS expression by immunoblotting in melanoma cells; assay type: cell-based, human; conditions: for induction of nNOS by DETA/NO or UVB radiation: as low as 1 μM
Protocol: Cell Protein Extraction and Western Blot Analysis: Melanoma cells were collected and lysed as described previously. […] Measurement of signal intensity on membranes was done using an imaging densitometer with Multi-Analyst software (Bio-Rad). All data were expressed as fold change of the control based on the calculation of density values of the specific protein bands standardized by α-Tubulin/actin. UV radiation and cell treatment: Cells were grown to about 70% confluence and media was removed completely for UV radiation. For UVA radiation, 5 ml of PBS was added to one 10-cm dish of cells and ice cubes were placed next to dishes for absorbing the heat generated by UVA. […] The UV intensity was measured by a radiometer with proper probes. Fresh media was added back after radiation and cells were returned to 37° C. incubator for recovering.

For N=C(N)NCCC[C@H](N)C(=O)O [L-arginine, reference compound], the “intracellular NO level” value (melanoma A375 cells; incubation with L-arginine, A375 cells) was “increased”, the “invasion potential of metastatic melanoma cells” value ([1]; 2.87 mM) was “markedly enhanced the invasion potential” and the “melanoma growth in 3D skin equivalents” value ([2]; 2.87 mM) was “significantly promoted melanoma growth”.
With NCCN(CCN)[N+]([O-])=NO [DETA/NO, 1-[N-(2-Aminoethyl)-N-(2-ammonioethyl)amino]diazen-1-ium-1,2-diolate, reference compound] the “cell proliferation of primary melanocytes” value [3] was “significantly stimulated”, the “proliferation of metastatic Lu1205 and SK-Mel28 cells” value (human melanoma cells; 100 μM) was “Marked stimulation of proliferation” and the “proliferation of primary melanoma wm3211 cells” value (human melanoma cells; 100 μM) was “not significant”. For the same compound, the “nNOS induction in melanocytes” value [4] was “not evident”.
Cc1cc(N)nc(C[C@H]2CNC[C@H]2NCCNCc2cccc(C(F)(F)F)c2)c1 [Compound 3, N^1-((3S,4S)-4-((6-amino-4-methylpyridin-2-yl)methyl)pyrrolidin-3-yl)-N^2-(3-(trifluoromethyl)benzyl)ethane-1,2-diamine] gave a Ki (eNOS [5]) of 116 µM, a Ki (iNOS [6]) of 13.6 µM and a Ki (nNOS [7]) of 0.21 µM. The “Selectivity nNOS/eNOS” value (nNOS [8]) was 552.4 and the “Selectivity nNOS/iNOS” value (nNOS [8]) was 64.8.
With Oc1ccc(C=Cc2cc(O)cc(O)c2)cc1 [resveratrol] the “L-arginine-induced NO generation” value (melanoma A375 cells; up to 50 μM) was “not affected at all; also recorded: failed to inhibit”.
With Cc1cc(N)nc(C[C@H]2CNC[C@H]2NCCN)c1 [Compound 5, N^1-((3S,4S)-4-((6-amino-4-methylpyridin-2-yl)methyl)pyrrolidin-3-yl)ethane-1,2-diamine] the Ki (iNOS [6]) was 5.84 µM and the Ki (nNOS [7]) was 0.098 µM.
With Cl.Cl.Cl.NCCCCNCCCN [Spermidine trihydrochloride (ST), Spermidine trihydrochloride, reference compound] the “NOS activity in metastatic Lu1205 cells” value (Lu1205 cells; 10 μM) was “comparable inhibition of NOS activity”.
Nc1cccc(C[C@H]2CN(Cc3ccccc3)C[C@H]2NCCCc2ccccc2)n1 [Compound 2, 6-(((3S,4S)-1-benzyl-4-((3-phenylpropyl)amino)pyrrolidin-3-yl)methyl)pyridin-2-amine] showed a Ki (eNOS [9]) of 122 µM, an IC50 (wm3211) of 5 µM and a Ki (iNOS [10]) of 609 µM. For the same compound, the IC50 (Sk-Mel28) was 3.5 µM, the Ki (nNOS [7]) was 48 µM and the “Selectivity nNOS/eNOS” value (nNOS [8]) was 2.5. The “Selectivity nNOS/iNOS” value (nNOS [8]) was 12.7.
In the case of N=C(N)SCCc1cccc(CCSC(=N)N)c1 [PBIT, 1,3-phenylene-bis(1,2-ethanediyl)bisisothiourea], the “iNOS selectivity over nNOS” value (iNOS [11]) is given as 1.5 fold, the Ki (iNOS [12]) is given as 0.019 µM and the Ki (nNOS [13]) is given as 0.029 µM.
With COc1cc(/C=C/C(=O)CC(=O)/C=C/c2ccc(O)c(OC)c2)ccc1O [curcumin] the “L-arginine-induced NO generation” value (melanoma A375 cells; up to 50 μM) was “not affected at all; also recorded: failed to inhibit”.
For Cc1cc(N)nc(C[C@H]2CNC[C@@H]2NCCNCCc2cccc(F)c2)c1 [Compound 8, N^1-((3R,4S)-4-((6-amino-4-methylpyridin-2-yl)methyl)pyrrolidin-3-yl)-N^2-(3-fluorophenethyl)ethane-1,2-diamine], the “L-arginine-induced NO generation” value (melanoma A375 cells; as low as 1 μM, listed as cpd 8) was “inhibited; also recorded: efficiently inhibited NO production; also recorded: reduced”, the “invasion potential elevated by L-arginine” value ([1]; A375 cells, co-treatment with L-arginine 2.87 mM) was “inhibited; also recorded: efficiently reversed” and the “cell invasion potential elevated by DETA/NO” value ([1]; co-treatment with DETA/NO) was “reversed”. The “melanoma overgrowth induced by L-arginine in skin reconstruct” value ([2]; 2 μM, L-arginine 2.87 mM) was “reversed the overgrowth induced by L-arginine”, the “NOS activity in metastatic Lu1205 cells” value (Lu1205 cells; 1 μM) was “significantly reduced total NOS activities; also recorded: effectively inhibited” and the DETA/NO-stimulated proliferation (human melanoma cells; co-treatment, after 3 days) was “significantly reversed”. For the same compound, the “L-arginine-stimulated adhesion of A375 cells to fibroblast cells” value [14] was “most potent inhibition of the relative adhesion”, the “induction of nNOS by DETA/NO or UVB radiation” value ([15]; listed as Cpd 8) was “effectively inhibited the induction of nNOS” and the “induction of nNOS by DETA/NO or UVB radiation” value ([15]; listed as cpd 8) was “inhibited nNOS expression”. The “basal nNOS levels of melanoma cells” value ([15]; up to 200 μM) was “does not affect basal nNOS levels”.
